According to US6372747B1, “Farnesyl protein transferase inhibitors” (Schering Corporation, priority 1998, dated 2002):

System: Human tumor cells
Assay: Soft Agar Assay (anchorage-independent growth)
Type: cell-based
Conditions: Homo sapiens, range stated for the group unless single
Experimental: Anchorage-independent growth is a characteristic of tumorigenic cell lines. Human tumor cells can be suspended in growth medium containing 0.3% agarose and an indicated concentration of a farnesyl transferase inhibitor. The solution can be overlayed onto growth medium solidified with 0.6% agarose containing the same concentration of farnesyl transferase inhibitor as the top layer. After the top layer is solidified, plates can be incubated for 10-16 days at 37° C. under 5% CO2 to allow colony outgrowth. After incubation, the colonies can be stained by overlaying the agar with a solution of MTT (3-[4,5-dimethyl-thiazol-2-yl]-2,5-diphenyltetrazolium bromide, Thiazolyl blue) (1 mg/mL in PBS). Colonies can be counted and the IC50's can be determined.

For Cn1cncc1CCN(CC1CC1)C(=O)[C@H]1CN([C@H]2c3ccc(Cl)cc3CCc3cc(Br)cnc32)CCN1C(=O)OC(C)(C)C [305 (11s,2R isomer)], which IC50 is on record?
The IC50 was 2 to 10 nM.

With Cc1cn(CCCN(Cc2ccccc2)C(=O)[C@H]2CN([C@@H]3c4ccc(Cl)cc4CCc4cccnc43)CCN2C(=O)OC2CCCC2)cn1 [Example 202] as the compound, how does the IC50 read?
Its IC50 is 2 to 10 nM.

System: not given
Assay: not given
Conditions: not given

Which melting point does the source give for CC(C)(CCNC(=O)[C@H]1CN(C2c3ccc(Cl)cc3CCc3cc(Br)cnc32)CCN1C(=O)OCc1ccccc1)n1ccnc1 (stereo partly drawn) [Example 3] here?
The melting point was 103 to 106 °C.

For NC(=O)[C@H](Cc1cn(C(=O)NC2CCCCC2)cn1)NC(=O)[C@H]1CN(C2c3ccc(Cl)cc3CCc3cc(Br)cnc32)CCN1C(=O)NC1CCCCC1 (stereo partly drawn) [Example 24], which melting point is on record?
The melting point was 164 to 167 °C.

For CC(C)(CCNC(=O)[C@H]1CN(C2c3ccc(Cl)cc3CCc3cc(Br)cnc32)CCN1S(C)(=O)=O)n1ccnc1 (mixture of isomers) [Example 15], which melting point is on record?
The melting point was 107 to 110 °C.

With O=C(NCCn1nnc2ccccc21)[C@H]1CN(C2c3ccc(Cl)cc3CCc3cc(Br)cnc32)CCN1C(=O)NC1CCCCC1 (stereo partly drawn) [Example 292] as the compound, how does the melting point read?
Its melting point is 127 to 132 °C.

Which melting point does the source give for CC(C)(C)NC(=O)N1CCN([C@@H]2c3ccc(Cl)cc3CCc3cc(Br)cnc32)C[C@@H]1C(=O)NCCC1(n2ccnc2)CC1 [Example 13] here?
The melting point was 106 to 110 °C.

For CC(C)(C)OC(=O)N1CCN(C2c3ccc(Cl)cc3CCc3cc(Br)cnc32)C[C@@H]1C(=O)NCCc1cncn1CCc1ccccc1 (stereo partly drawn) [Example 44], which melting point is on record?
Its melting point is 101 to 103 °C.

With CCn1cncc1CCN(CC1CC1)C(=O)[C@H]1CN([C@@H]2c3ccc(Cl)cc3CCc3cccnc32)CCN1C(=O)OC(C)(C)C [Example 308] as the compound, how does the melting point read?
The melting point was 89.1 to 96.5 °C.

Which melting point does the source give for O=C(NCCc1cnc(C(F)(F)F)[nH]1)[C@H]1CN(C2c3ccc(Cl)cc3CCc3cc(Br)cnc32)CCN1C(=O)NC1CCCCC1 (stereo partly drawn) [Example 294] here?
The melting point was 173.8 °C.

With Cc1cn(CCCN(Cc2ccccc2)C(=O)[C@H]2CN(C3c4ccccc4CCc4cc(Cl)cnc43)CCN2C(=O)OC2CCCCC2)cn1 (stereo partly drawn) [Example 395] as the compound, how does the melting point read?
The melting point was 91 to 107 °C.

For Cn1cncc1CCNC(=O)[C@H]1CN(C2c3ccc(Cl)cc3CCc3cc(Br)cnc32)CCN1C(=O)Cc1ccc(F)cc1 (single isomer, unassigned) [Example 35], which melting point is on record?
Its melting point is 132.5 to 139.7 °C.

For CN(CCCn1ccnc1)C(=O)[C@H]1CN(C2c3ccc(Cl)cc3CCc3cc(Br)cnc32)CCN1C(=O)NC1CCCCC1 (stereo partly drawn) [Example 110], which melting point is on record?
Its melting point is 118.4 °C.

For Cn1cncc1CCN(Cc1ccccc1)C(=O)[C@H]1CN(C2c3ccc(Cl)cc3CCc3cc(Br)cnc32)CCN1C(=O)NC(C)(C)C (single isomer, unassigned) [Example 61], which melting point is on record?
Its melting point is 127 to 130 °C.

With Cn1cncc1CCN(Cc1ccccc1)C(=O)[C@H]1CN(C2c3ccc(Cl)cc3CCc3cc(Br)cnc32)CCN1C(=O)NC1CCCCC1 (single isomer, unassigned) [Example 60] as the compound, how does the melting point read?
Its melting point is 130 to 139 °C.

With CCCn1cncc1CCNC(=O)C1CN(C2c3ccc(Cl)cc3CCc3cc(Br)cnc32)CCN1C(=O)OC(C)(C)C (stereo not drawn) [Example 41] as the compound, how does the melting point read?
Its melting point is 116 to 123 °C.

With CC(C)(C)NC(=O)N1CCN([C@H]2c3ccc(Cl)cc3CCc3cc(Br)cnc32)C[C@@H]1C(=O)NCCC(C)(C)n1ccnc1 [Example 10] as the compound, how does the melting point read?
The melting point was 139 to 142 °C.

Which melting point does the source give for Cn1cncc1CCNC(=O)[C@H]1CN(C2c3ccc(Cl)cc3CCc3cc(Br)cnc32)CCN1C(=O)NC(C)(C)C (single isomer, unassigned) [Example 28] here?
The melting point was 128.1 to 135.2 °C.

For CC(CCNC(=O)[C@H]1CN(C2c3ccc(Cl)cc3CCc3cc(Br)cnc32)CCN1C(=O)NC1CCCCC1)n1ccnc1 (stereo partly drawn) [Example 19], which melting point is on record?
The melting point was 133 to 138 °C.

For Cn1cncc1CCNC(=O)[C@H]1CN(C2c3ccc(Cl)cc3CCc3cc(Br)cnc32)CCN1C(=O)Cc1cc[n+]([O-])cc1 (single isomer, unassigned) [Example 36], which melting point is on record?
Its melting point is 168.9 to 172.3 °C.

With CC(C)(C)NC(=O)N1CCN([C@H]2c3ccc(Cl)cc3CCc3cc(Br)cnc32)C[C@@H]1C(=O)NCCC1(n2ccnc2)CC1 [Example 12] as the compound, how does the melting point read?
The melting point was 136 to 139 °C.

For CCN(CCCn1ccnc1)C(=O)[C@H]1CN(C2c3ccc(Cl)cc3CCc3cc(Br)cnc32)CCN1C(=O)NC1CCCCC1 (stereo partly drawn) [Example 111], which melting point is on record?
The melting point was 79.3 °C.

For O=C(NCCCn1ccnc1CO)[C@H]1CN(C2c3ccc(Cl)cc3CCc3cc(Br)cnc32)CCN1C(=O)NC1CCCCC1 (stereo partly drawn) [Example 296], which melting point is on record?
Its melting point is 141.2 °C.

For CC(C)NC(=O)N1CCN(C2c3ccc(Cl)cc3CCc3cc(Br)cnc32)CC1C(=O)NCCC1(n2ccnc2)CC1 (stereo not drawn) [Example 14], which melting point is on record?
Its melting point is 133 to 139 °C.

With Cn1cncc1CCN(Cc1ccccc1)C(=O)[C@H]1CN(C2c3ccc(Cl)cc3CCc3cccnc32)CCN1C(=O)OC(C)(C)C (single isomer, unassigned) [Example 62] as the compound, how does the melting point read?
Its melting point is 93.1 to 99.8 °C.

For O=C(NCC1(c2cnc[nH]2)CC1)[C@H]1CN(C2c3ccc(Cl)cc3CCc3cc(Br)cnc32)CCN1C(=O)NC1CCCCC1 (stereo partly drawn) [Example 22], which melting point is on record?
The melting point was 156 to 158 °C.

With Cn1cncc1CCNC(=O)[C@H]1CN(C2c3ccc(Cl)cc3CCc3cc(Br)cnc32)CCN1C(=O)N1CCOCC1 (single isomer, unassigned) [Example 31] as the compound, how does the melting point read?
Its melting point is 136.4 to 138.6 °C.

Which melting point does the source give for CC(C)NC(=O)N1CCN(C2c3ccc(Cl)cc3CCc3cc(Br)cnc32)C[C@@H]1C(=O)NCCc1cncn1C (single isomer, unassigned) [Example 29] here?
The melting point was 128.1 to 133.4 °C.

With CN(C)C(=O)N1CCN(C2c3ccc(Cl)cc3CCc3cc(Br)cnc32)CC1C(=O)NCCC(C)(C)n1ccnc1 (stereo not drawn) [Example 18] as the compound, how does the melting point read?
The melting point was 139 to 142 °C.

Which melting point does the source give for CCn1cncc1CCNC(=O)[C@H]1CN(C2c3ccc(Cl)cc3CCc3cc(Br)cnc32)CCN1C(=O)OC(C)(C)C (stereo partly drawn) [Example 40] here?
The melting point was 54 to 58 °C.

For Cn1cncc1CCNC(=O)[C@H]1CN(C2c3ccc(Cl)cc3CCc3cc(Br)cnc32)CCN1C(=O)CC1CCN(C(N)=O)CC1 (single isomer, unassigned) [Example 39], which melting point is on record?
Its melting point is 148.1 to 150.4 °C.

For Cn1cncc1CCNC(=O)[C@H]1CN(C2c3ccc(Cl)cc3CCc3cc(Br)cnc32)CCN1C(=O)CC1CCN(C(=O)OC(C)(C)C)CC1 (single isomer, unassigned) [Example 37], which melting point is on record?
The melting point was 141.7 to 143.2 °C.

For Cn1cncc1CCNC(=O)[C@H]1CN(C2c3ccc(Cl)cc3CCc3cc(Br)cnc32)CCN1C(=O)c1ccc(F)cc1 (single isomer, unassigned) [Example 34], which melting point is on record?
The melting point was 144.9 to 148.7 °C.

Which melting point does the source give for O=C(NCCC(c1ccc(Cl)cc1)n1ccnc1)[C@H]1CN(C2c3ccc(Cl)cc3CCc3cc(Br)cnc32)CCN1C(=O)NC1CCCCC1 (stereo partly drawn) [Example 5] here?
The melting point was 138 to 140 °C.

Which melting point does the source give for Cn1cncc1CCNC(=O)[C@H]1CN(C2c3ccc(Cl)cc3CCc3cc(Br)cnc32)CCN1C(=O)CC1CCNCC1 (single isomer, unassigned) [Example 38] here?
Its melting point is 136.1 to 139.5 °C.

With Cn1cncc1CCNC(=O)[C@H]1CN(C2c3ccc(Cl)cc3CCc3cc(Br)cnc32)CCN1S(C)(=O)=O (single isomer, unassigned) [Example 33] as the compound, how does the melting point read?
Its melting point is 139 to 145.1 °C.

For CC(C)OC(=O)N1CCN(C2c3ccc(Cl)cc3CCc3cc(Br)cnc32)C[C@@H]1C(=O)NCCc1cncn1C (single isomer, unassigned) [Example 30], which melting point is on record?
Its melting point is 120.3 to 126.1 °C.

With CC(C)(CCNC(=O)[C@H]1CN([C@H]2c3ccc(Cl)cc3CCc3cc(Br)cnc32)CCN1C(=O)Cc1cc[n+]([O-])cc1)n1ccnc1 [Example 6] as the compound, how does the melting point read?
Its melting point is 115 to 117 °C.

For Cn1cncc1CCN(CC1CC1)C(=O)[C@H]1CN([C@H]2c3ccc(Cl)cc3CCc3cccnc32)CCN1C(=O)OC(C)(C)C [Example 306], which melting point is on record?
The melting point was 100 to 114 °C.

With CC(C)(CCNC(=O)[C@H]1CN([C@@H]2c3ccc(Cl)cc3CCc3cc(Br)cnc32)CCN1C(=O)CC1CCN(C(N)=O)CC1)n1ccnc1 [Example 9] as the compound, how does the melting point read?
Its melting point is 150 to 153 °C.

For CCn1cncc1CCN(CC1CC1)C(=O)[C@H]1CN([C@H]2c3ccc(Cl)cc3CCc3cccnc32)CCN1C(=O)OC(C)(C)C [Example 307], which melting point is on record?
The melting point was 89.1 to 96.5 °C.

Which melting point does the source give for CC(C)(CNC(=O)[C@H]1CN(C2c3ccc(Cl)cc3CCc3cc(Br)cnc32)CCN1C(=O)NC1CCCCC1)c1cnc[nH]1 (stereo partly drawn) [Example 21] here?
Its melting point is 150 to 154 °C.

For CC(C)Cn1cncc1CCNC(=O)[C@H]1CN(C2c3ccc(Cl)cc3CCc3cc(Br)cnc32)CCN1C(=O)OC(C)(C)C (stereo partly drawn) [Example 43], which melting point is on record?
The melting point was 120 to 122 °C.

With Cn1cncc1CCNC(=O)[C@H]1CN(C2c3ccc(Cl)cc3CCc3cc(Br)cnc32)CCN1C(=O)Nc1ccc(F)cc1 (single isomer, unassigned) [Example 27] as the compound, how does the melting point read?
Its melting point is 140.1 to 149.4 °C.

For Cn1cncc1CCNC(=O)[C@H]1CN(C2c3ccc(Cl)cc3CCc3cc(Br)cnc32)CCN1C(=O)OCc1ccccc1 (stereo partly drawn) [Example 26], which melting point is on record?
Its melting point is 111.8 to 114.5 °C.

Which melting point does the source give for CC(C)n1cncc1CCNC(=O)[C@H]1CN(C2c3ccc(Cl)cc3CCc3cc(Br)cnc32)CCN1C(=O)OC(C)(C)C (stereo partly drawn) [Example 42] here?
Its melting point is 98 to 101 °C.

For CCCN(CCCn1ccnc1)C(=O)[C@H]1CN(C2c3ccc(Cl)cc3CCc3cc(Br)cnc32)CCN1C(=O)NC1CCCCC1 (stereo partly drawn) [Example 112], which melting point is on record?
Its melting point is 63.8 to 67.4 °C.

For Cn1cncc1CCNC(=O)[C@H]1CN(C2c3ccc(Cl)cc3CCc3cc(Br)cnc32)CCN1C(=O)OC(C)(C)C (single isomer, unassigned) [Example 32], which melting point is on record?
The melting point was 134.9 to 137.5 °C.

With O=C(NCCn1nc2ccccc2n1)[C@H]1CN(C2c3ccc(Cl)cc3CCc3cc(Br)cnc32)CCN1C(=O)NC1CCCCC1 (stereo partly drawn) [Example 291] as the compound, how does the melting point read?
Its melting point is 132 to 135 °C.

For CCn1cncc1CCN(CC1CC1)C(=O)[C@H]1CN(C2c3ccc(Cl)cc3CCc3cc(Br)cnc32)CCN1C(=O)OC(C)(C)C (stereo partly drawn) [Example 304], which melting point is on record?
The melting point was 103.7 to 107.5 °C.

With O=C(NCCc1cnc(O)[nH]1)[C@H]1CN(C2c3ccc(Cl)cc3CCc3cc(Br)cnc32)CCN1C(=O)NC1CCCCC1 (stereo partly drawn) [Example 297] as the compound, how does the melting point read?
The melting point was 182.1 to 219.4 °C.
